Experimental data published in US20090088380A1, “GHRH ANALOGS AND THERAPEUTIC USES THEREOF” (priority 2007, published 2009).
Values joined by “and” are separate entries in the source; they are usually repeats but may differ in a detail not shown here. Equal entries are not always repeated. Non-standard residues stand in square brackets, D forms with d. Residues, ends and D or L forms follow the SMILES beside them.

What was measured:
[1] = In vitro proteolysis assay in rat serum; type: in vitro ADME
Procedure: Proteolysis was stopped by adding 800 μl of ice-cold stop buffer (potassium-phosphate buffer, acidified to pH 0.8 with trifluoroacetic acid (TFA) and boiling 5 min (rat serum only). After centrifugation (12000 g, 5 min, 4° C.) (rat serum only), serum-peptide mixtures were passed through a conditioned Sep-Pak C-18 cartridge to extract native GHRH or a GHRH analog residual concentrations from serum proteins. The native GHRH or the analog was eluted in 2 ml of 50% acetonitrile-0.01% TFA/50% 0.01% aqueous TFA. 200 μl of extracted peptide, representing 1 μg of GHRH or analog at time 0, was quantified by analytical HPLC, using one μ-Bondapak C18 column (10 μm particle size, 0.39×15 cm) (rat serum) or two C18 columns in series (human serum and plasma) and a binary solvent system composed of NaClO4 0.01 M, pH 2.5 and acetonitrile. A linear gradient from 30 to 60% acetonitrile over 45 min (rat serum) or 30 to 50% (human serum and plasma) was used. Elution of intact peptide was monitored at 214 nm and residual concentration determined by assessment of peak surface areas.

GH and IGF-1 secretion = test: Phase I/II study in healthy male volunteers: GH and IGF-1 secretion; type: in vivo, human
Description: The primary objectives of the Phase I/II study were to assess safety and tolerability of escalating doses of the GHRH(1-29)NH2 synthetic analog (Maximal Tolerated Dose—MTD) and to determine the minimal effective dose (MED) of the GHRH(1-29)NH2 synthetic analog in terms of stimulation of GH and IGF-1 secretion. The secondary objectives were to establish the lowest dose of the GHRH(1-29)NH2 synthetic analog that induces maximal response with a single subcutaneous administration into healthy male volunteers, to determine the MED for subsequent studies and to establish the most representative blood sampling time for evaluation of GH secretion profile after GHRH(1-29)NH2 synthetic analog administration to be used in subsequent studies.
It was a crossover single-blinded Phase I/II trial of escalating doses of the GHRH(1-29)NH2 synthetic analog controlled versus placebo. Ten healthy middle-aged male volunteers, between 50 and 55 years old, were recruited. All 10 subjects received a single subcutaneous dose of the GHRH(1-29)NH2 synthetic analog (reconstituted in water for injection), per day for 5 days, in a dose range from 5 to 25 μg/kg of body weight (lower than the maximal dose used to treat GH deficiency in children, which was 30 μg/kg of body weight).
Each volunteer was hospitalized for 6 days. All volunteers were randomized into 5 groups (2 volunteers per group). During the first 24 hours of hospitalization (Day 0), scheduled blood samples were obtained for GH and IGF-1 assessment (GH and IGF-1 baseline sampling) and then from Day 1 until Day 5, following each GHRH(1-29)NH2 synthetic analog or placebo dose administration, according to the established randomization plan.
Once the volunteers were considered eligible, they were hospitalized for a period of 5 consecutive days. On Day 0 of admission successive samples of blood were taken to perform the basal secretion profile of GH during 24 hours. During 5-day hospitalization period, after the initial blood sampling to determine fasting glucose level, the appropriate dose of the GHRH(1-29)NH2 synthetic analog or placebo was administered and multiple samplings were performed to assess the profile of GH, postprandial glucose level and electrocardiogram after 60 minutes of the application of the GHRH(1-29)NH2 synthetic analog/placebo. Eight hours after drug administration, samples were obtained to determine IGF-1 level, thyroid hormones and routine analysis. After 30 days of admission, all the volunteers returned for new clinical evaluation to record any adverse events that could have occurred from the last day of hospitalization period and to take a blood sample for later determination of anti-GHRH(1-29)NH2 synthetic analog antibodies.
Serum human GH was measured by using a commercial DSL-1900 ACTIVE® Human Growth Hormone Coated-Tube Immunoradiometric Assay Kit purchased from Diagnostic Systems Laboratories, Inc., Texas, USA. Serum IGF-1 was measured using DSL-9400 ACTIVE® Free Insulin-Like Growth Factor-I Coated-Tube IRMA Kit purchased from Diagnostic Systems Laboratories.
To determine MED, GH secretion curves were drawn and the area under the curve (AUC) calculated for each study drug dose.

protein turnover = test: Phase II, malnourished CKD subjects, 1 mg sc twice daily 28 days: 13C-leucine kinetics (protein turnover); type: in vivo, human; settings: for Leucine oxidation: adjusted mean difference (analog-placebo): Day 28; for Leucine flux: mean (SD): normalised with body weight
Procedure: This was a randomized, double-blind, placebo-controlled, parallel-group, multi-centre study of the GHRH(1-29)NH2 synthetic analog in malnourished subjects with CKD. Twenty-six subjects were required to complete the study.
All study subjects were randomised in equal numbers to receive active GHRH(1-29)NH2 synthetic analog or an equivalent volume of placebo, by sc injection, twice daily for 28 days.
Vials of investigational product contained 1.4 mg of the GHRH(1-29)NH2 synthetic analog. This was reconstituted with 0.7 mL of water for injection and 0.5 mL of the resultant solution (1.0 mg of active substance) was administered, i.e. approximately 15 μg/kg. The diluent, water for injections, was obtained from commercial stock and labelled accordingly.
Leucine kinetics was measured on Day 0 and Day 29 by a primed-constant infusion technique during substrate and isotopic steady state. The priming dose consisted of 4.0 μmol/kg of L[1−^13C] leucine and 0.11 mg/kg of NaH^13CO3 and a sustaining infusion rate of L[1−^13C] leucine of 4.0 μmol/kg/h for 4 hours. The isotopes were purchased directly from Cambridge Isotope Laboratories.
A 1 mL sample of venous blood was taken before administration of the dose of isotope and at 180, 195, 210, 225 and 240 minutes after the start of infusion.
Breath samples were provided by blowing through a straw into Exetainer® tubes (evacuated 139 B blue tops). Breath samples were collected before the dose of isotope and at 180, 195, 210, 225 and 240 minutes after the start of infusion. Duplicate samples were collected. One sample was sent for analysis; the other was retained in case of loss or breakage. All retained samples were destroyed once the database was locked.

[2] = ITT, Baseline, listed as GHRH(1-29)NH2 synthetic analog
[3] = ITT, listed as GHRH(1-29)NH2 synthetic analog

## CC[C@H](C)[C@H](NC(=O)[C@H](C)NC(=O)[C@H](CC(=O)O)NC(=O)[C@@H](C)NC(=O)[C@@H](N)Cc1ccc(O)cc1)C(=O)N[C@@H](Cc1ccccc1)C(=O)N[C@H](C(=O)N[C@@H](CC(N)=O)C(=O)N[C@@H](CO)C(=O)N[C@H](Cc1ccc(O)cc1)C(=O)N[C@@H](CCCNC(=N)N)C(=O)N[C@@H](CCCCN)C(=O)N[C@H](C(=O)N[C@@H](CC(C)C)C(=O)N[C@H](C)C(=O)N[C@@H](CCC(N)=O)C(=O)N[C@@H](CC(C)C)C(=O)N[C@@H](CO)C(=O)N[C@@H](C)C(=O)N[C@@H](CCCNC(=N)N)C(=O)N[C@@H](CCCCN)C(=O)N[C@@H](CCCCN)C(=O)N[C@@H](CC(C)C)C(=O)N[C@@H](CCC(N)=O)C(=O)N[C@@H](CC(=O)O)C(=O)N[C@H](C(=O)N[C@@H](CCSC)C(=O)N[C@@H](CO)C(=O)N[C@@H](CCCNC(=N)N)C(N)=O)[C@@H](C)CC)C(C)C)[C@@H](C)O [GHRH analog #5, [D-Ala^2, D-Tyr^10, D-Ala^15, Lys^22] hGHRH(1-29)-NH2] (H-Y[dA]DAIFTNS[dY]RKVL[dA]QLSARKKLQDIMSR-NH2)
[1]; compared to hGHRH(1-29)-NH2
  Relative resistance to proteolysis in vitro: 3.13
[1]; incubation 0 min
  Residual concentration (% of initial concentration): 100 ± 0 % of initial concentration
GH and IGF-1 secretion; 5 μg/kg body weight
  AUC of GH level in the first 12 hours: 61.76
GH and IGF-1 secretion; 10 μg/kg body weight
  AUC of GH level in the first 12 hours: 71.25
GH and IGF-1 secretion; 15 μg/kg body weight
  AUC of GH level in the first 12 hours: 135.17
GH and IGF-1 secretion; 25 μg/kg body weight
  AUC of GH level in the first 12 hours: 149.48
GH and IGF-1 secretion; Day 1 of treatment
  IGF-1 mean level: 156 ng/mL
GH and IGF-1 secretion; Day 5 of treatment
  IGF-1 mean level: 231 ng/mL
GH and IGF-1 secretion; any dose
  GH levels compared to placebo: unequivocally higher at any dose
Protein turnover; ITT
  Leucine flux: mean (SD) change from baseline to Day 28: 1.15 (30.09) μmol/kg · hr
  Leucine flux: median change from baseline to Day 28: -0.4 µmol/kg/h
  Leucine oxidation: mean (SD) change from baseline to Day 28: 2.38 (5.66) μmol/kg · hr
  Leucine oxidation: median change from baseline to Day 28: 2.3 µmol/kg/h
  Oxidation of flux: mean (SD) change from baseline to Day 28: 2.64 (6.26) %
  Oxidation of flux: median change from baseline to Day 28: 3.8%
  Protein breakdown: mean (SD) change from baseline to Day 28: 1.16 (30.11) μmol/kg · hr
  Protein breakdown: median change from baseline to Day 28: -0.4 µmol/kg/h
  Protein synthesis of flux: mean (SD) change from baseline to Day 28: −2.64 (6.26) %
  Protein synthesis of flux: median change from baseline to Day 28: −3.8%
  Protein synthesis: mean (SD) change from baseline to Day 28: −1.22 (30.75) μmol/kg · hr
  Protein synthesis: median change from baseline to Day 28: -4.6 µmol/kg/h
  Leucine oxidation: adjusted mean difference (analog-placebo): 1.1 μmol/kg · hr
Protein turnover; ITT, Baseline
  Leucine flux: median: 98.3 µmol/kg/h
  Leucine oxidation: mean (SD): 7.74 μmol/kg · hr and 7.74 (4.51) μmol/kg · hr
  Leucine oxidation: median: 5.8 µmol/kg/h
  Oxidation of flux: mean (SD): 7.61 (4.19) %
  Oxidation of flux: median: 6.9%
  Protein breakdown: mean (SD): 97.45 (21.53) μmol/kg · hr
  Protein breakdown: median: 94.2 µmol/kg/h
  Protein synthesis of flux: mean (SD): 92.39 (4.19) %
  Protein synthesis of flux: median: 93.1%
  Protein synthesis: mean (SD): 93.71 (20.38) μmol/kg · hr
  Protein synthesis: median: 88.9 µmol/kg/h
  Leucine flux: mean (SD): 101.46 (21.54) μmol/kg · hr
Protein turnover; [2]
  Leucine oxidation: mean (SD): 7.74 µmol/kg/h
  Protein breakdown: mean (SD): 97.45 µmol/kg/h
  Protein synthesis: mean (SD): 93.71 µmol/kg/h
  Leucine flux: mean (SD): 101.46 µmol/kg/h
Protein turnover; [3]
  Leucine flux: mean (SD) change from baseline to Day 28: 1.15 µmol/kg/h
  Leucine oxidation: mean (SD) change from baseline to Day 28: 2.38 µmol/kg/h
  Protein breakdown: mean (SD) change from baseline to Day 28: 1.16 µmol/kg/h
  Protein synthesis of flux: median change from baseline to Day 28: -3.8%
  Protein synthesis: mean (SD) change from baseline to Day 28: -1.22 µmol/kg/h
Protein turnover; ITT, vs placebo
  Leucine flux: adjusted mean difference: 7.5 µmol/kg/h
  Protein breakdown: adjusted mean difference: 7.5 µmol/kg/h
  Protein synthesis: adjusted mean difference: 6.9 µmol/kg/h
Protein turnover; ITT, vs placebo, ANCOVA assuming log-normal distribution
  Oxidation of flux: adjusted mean difference: 1.48%
Protein turnover; PP (Leucine Kinetic)
  Leucine oxidation: mean (SD) change from baseline to Day 28: 1.90 (6.24) μmol/kg · hr
  Leucine oxidation: median change from baseline to Day 28: 2.3 µmol/kg/h
  Leucine oxidation: adjusted mean difference (analog-placebo): 3.3 μmol/kg · hr
Protein turnover; PP (Leucine Kinetic), Baseline
  Leucine oxidation: mean (SD): 7.81 (5.42) μmol/kg · hr
  Leucine oxidation: median: 5.6 µmol/kg/h
